The values that follow come from US11999746B2, “Compounds” (GlaxoSmithKline Intellectual Property Development Limited, priority 2014, dated 2024).

One assay has as its target T1, Lp-PLA2 in human plasma (Homo sapiens, UniProt Q13093).
T1 construct: from tissue; host or cells: pooled human plasma
T1 sequence (Q13093 22-441): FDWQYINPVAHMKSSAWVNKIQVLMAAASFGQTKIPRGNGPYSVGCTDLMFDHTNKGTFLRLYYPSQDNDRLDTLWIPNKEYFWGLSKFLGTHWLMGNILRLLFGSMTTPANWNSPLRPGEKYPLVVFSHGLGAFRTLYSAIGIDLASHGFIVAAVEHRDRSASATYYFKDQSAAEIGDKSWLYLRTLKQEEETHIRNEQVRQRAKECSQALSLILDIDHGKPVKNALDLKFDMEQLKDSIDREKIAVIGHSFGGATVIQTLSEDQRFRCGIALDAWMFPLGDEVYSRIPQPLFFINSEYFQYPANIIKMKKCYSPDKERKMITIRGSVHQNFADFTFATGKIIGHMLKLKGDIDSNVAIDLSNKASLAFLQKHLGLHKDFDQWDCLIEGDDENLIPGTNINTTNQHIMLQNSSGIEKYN
Put plainly: (3b) Lp-PLA2 human plasma alternative Thio-PAF assay. It counts as biochemical. Conditions: (3b) alternative Thio-PAF assay, pooled human plasma; Examples of 266-412 were tested here; read-out: pIC50 in the Lp-PLA2 human plasma assay (converted). Here is the method:
(3b) Alternative Thio-PAF Assay
The human plasma assay utilizes the same thioester analog of PAF as described in (1b) “hr ThioPAF” assay. This assay may detect the activity of Lp-PLA2 in human plasma, as determined by specific inhibition by Lp-PLA2 inhibitors.
The thio-PAF assay was run as a quenched 20 μL assay. Compounds source plate was prepared by making 1:3 (by volume) serial dilution of the compounds into pure DMSO on 96-well microplate. 5 μL of compounds on compound source plate were transferred to 96-well Corning 3686 (black) low-volume plates by STAR+(Hamilton) liquid dispenser. 10 μL pooled human plasma, which was previously aliquoted and frozen, was added. Plates were centrifuged for 30 sec at 1000 rpm. After 15 minutes preincubation at room temperature, 5 μL of substrate solution comprising 2 mM 2-thio-PAF [from ethanol stock], 52 μM CPM [from a DMSO stock] and 2.5 mM NEM (N-ethylmaleimide) [made fresh daily in DMSO] in assay buffer (50 mM HEPES, pH 7.4, 150 mM NaCl, 1 mM CHAPS) was added to 96-well Corning 3686 (black) low-volume plates. After 3 mins, reaction was quenched with 10 μL of 5% aqueous trifluoroacetic acid (TFA). Plates were centrifuged 30 sec at 1000 rpm, covered to protect from light and incubated for 10 min at room temperature. Plates were read at ex: 380 nm/em: 485 nm using Envision plate reader (Perkin Elmer). Raw data were transferred to Excel software and pIC50 data, curve and QC analysis was conducted by using XL fit module in Excel.

The target in assay [1] is T2, recombinant human Lp-PLA2 (Homo sapiens, UniProt Q13093).
T2 sequence (Q13093 22-441): T1 sequence (Q13093 22-441)
Put plainly: (1b) hrThioPAF assay, recombinant human Lp-PLA2. It counts as biochemical. Conditions: Examples 266-412 were tested here, one experiment or average of multiple experiments, read-out: rhLp-PLA2 (pIC50) (converted). The method, boiled down:
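Fluorogenic assay: 20 pM rhLp-PLA2 in 50 mM HEPES pH 7.4, 150 mM NaCl, 1 mM CHAPS with 1:3 serially diluted compounds; substrate mix of 40 μM 2-thio-PAF, 40 μM CPM, 400 μM NEM (pre-addition levels). 20 min at 25 °C in the dark; fluorescence ex 380/em 485 nm, pIC50 by curve fitting.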

In the case of `N#Cc1cc(COc2cc3n(c(=O)n2)C[C@H]2C[C@H](N)CN32)ccc1F` [Example E386, 5-((((7S,8aR)-7-Amino-1-oxo-1,6,7,8,8a,9-hexahydropyrrolo[1,2′:3,4]imidazo[1,2-c]pyrimidin-3-yl)oxy)methyl)-2-fluorobenzonitrile], the IC50 was not above 100 nM at Lp-PLA2 in human plasma and not above 10000 nM in assay [1].

Regarding `CCS(=O)(=O)N1CCN2c3cc(OCc4ccc(F)c(C#N)c4)nc(=O)n3CC2C1` (stereo not drawn) [Example E283, 5-(((2-(Ethylsulfonyl)-9-oxo-2,3,4,9,11,11a-hexahydro-1H-pyrazino[1,2′:3,4]imidazo[1,2-c]pyrimidin-7-yl)oxy)methyl)-2-fluorobenzonitrile], the IC50 is not above 100 nM on Lp-PLA2 in human plasma and not above 10000 nM in assay [1].

Consider `NC1(C(=O)N2CCN3c4cc(OCc5ccc(F)c(F)c5)nc(=O)n4CC3C2)CCOCC1` (stereo not drawn) [Example E345, 2-(4-Aminotetrahydro-2H-pyran-4-carbonyl)-7-((3,4-difluorobenzyl)oxy)-3,4,11,11a-tetrahydro-1H-pyrazino[1,2′:3,4]imidazo[1,2-c]pyrimidin-9(2H)-one], for which the values for the IC50 (on Lp-PLA2 in human plasma; in assay [1]) were not above 100 nM and not above 10000 nM, respectively.

With `O=c1nc(OCc2ccc(Oc3ccnc(C(F)(F)F)c3)c(F)c2)cc2n1CC1CNCCN21` (stereo not drawn) [Example E267, 7-((3-Fluoro-4-((2-(trifluoromethyl)pyridin-4-yl)oxy)benzyl)oxy)-3,4,11,11a-tetrahydro-1H-pyrazino[1′,2′:3,4] imidazo [1,2-c]pyrimidin-9(2H)-one], the IC50 (on Lp-PLA2 in human plasma; in assay [1]) was not above 100 nM each time.

Consider `CC(C)(C)C(=O)N1CCN2c3cc(OCc4ccc(F)c(F)c4)nc(=O)n3CC2C1` (stereo not drawn) [Example E332, 7-((3,4-Difluorobenzyl)oxy)-2-pivaloyl-3,4,11,11a-tetrahydro-1H-pyrazino[1′,2′:3,4]imidazo[1,2-c]pyrimidin-9(2H)-one], for which the IC50 is not above 100 nM on Lp-PLA2 in human plasma and not above 10000 nM in assay [1].

In the case of `N#Cc1cccc(COc2cc3n(c(=O)n2)CC2CNCCN32)c1` (stereo not drawn) [Example E272, 3-(((9-Oxo-2,3,4,9,11,11a-hexahydro-1H-pyrazino[1′,2′:3,4]imidazo [1,2-c]pyrimidin-7-yl)oxy)methyl) benzonitrile], the IC50 was not above 100 nM on Lp-PLA2 in human plasma and not above 10000 nM in assay [1].

Take `O=c1nc(OCc2ccc(F)c(F)c2)cc2n1CC1CN(S(=O)(=O)C3CC3)CCN21` (stereo not drawn) [Example E331, 2-(Cyclopropylsulfonyl)-7-((3,4-difluorobenzyl)oxy)-3,4,11,11a-tetrahydro-1H-pyrazino[1′,2′:3,4]imidazo[1,2-c]pyrimidin-9(2H)-one]: the figures for the IC50 (at Lp-PLA2 in human plasma; in assay [1]) were not above 100 nM and not above 10000 nM, respectively.

On to `Cc1ccc(Oc2c(F)cc(COc3cc4n(c(=O)n3)CC3CNCCN43)cc2F)cn1` (stereo not drawn) [Example E279, 7-((3,5-Difluoro-4-((6-methylpyridin-3-yl)oxy)benzyl)oxy)-3,4,11,11a-tetrahydro-1H-pyrazino[1′,2′:3,4] imidazo [1,2-c]pyrimidin-9(2H)-one], for which the IC50 at Lp-PLA2 in human plasma was not above 100 nM; in assay [1] it was not above 10000 nM.

With `O=c1nc(OCc2ccc(F)c(F)c2)cc2n1CC1(CCOCC1)N2` [Example 402, 7-((3,4-Difluorobenzyl)oxy)-2′,3′,5′,6′-tetrahydro-1H-spiro[imidazo[1,2-c]pyrimidine-2,4′-pyran]-5(3H)-one], the IC50 at Lp-PLA2 in human plasma is not above 100 nM; in assay [1], not above 10000 nM.

Regarding `N#Cc1cc(COc2cc3n(c(=O)n2)C[C@@H]2C[C@H](N)CN32)ccc1F` [Example E391, 5-((((7S,8aS)-7-Amino-1-oxo-1,6,7,8,8a,9-hexahydropyrrolo[1′,2′:3,4]imidazo[1,2-c]pyrimidin-3-yl)oxy)methyl)-2-fluorobenzonitrile], the IC50 at Lp-PLA2 in human plasma was not above 100 nM; in assay [1], not above 10000 nM.

As for `CC(C)CN1CCN2c3cc(OCc4ccc(F)c(F)c4)nc(=O)n3CC2C1` (stereo not drawn) [Example E305, 7-((3,4-Difluorobenzyl)oxy)-2-isobutyl-3,4,11,11a-tetrahydro-1H-pyrazino[1′,2′:3,4]imidazo[1,2-c]pyrimidin-9(2H)-one], the IC50 was not above 100 nM at Lp-PLA2 in human plasma and not above 10000 nM in assay [1].

Regarding `N#Cc1cc(COc2cc3n(c(=O)n2)CC2CN(C(=O)C4CCC4)CCN32)ccc1F` (stereo not drawn) [Example E302, 5-(((2-(Cyclobutanecarbonyl)-9-oxo-2,3,4,9,11,11a-hexahydro-1H-pyrazino[1′,2′:3,4]imidazo[1,2-c]pyrimidin-7-yl)oxy)methyl)-2-fluorobenzonitrile], the results for the IC50 (at Lp-PLA2 in human plasma; in assay [1]) were not above 100 nM and not above 10000 nM, respectively.

On to `CC(=O)N1CCN2c3cc(OCc4cc(F)c(Oc5ccc(C)nc5)c(F)c4)nc(=O)n3CC2C1` (stereo not drawn) [Example E299, 2-Acetyl-7-((3,5-difluoro-4-((6-methylpyridin-3-yl)oxy)benzyl)oxy)-3,4,11,11a-tetrahydro-1H-pyrazino[1′,2′:3,4]imidazo[1,2-c]pyrimidin-9(2H)-one], for which the IC50 on Lp-PLA2 in human plasma was not above 100 nM; in assay [1] it was not above 10000 nM.

Take `CCC(=O)N1CCN2c3cc(OCc4ccc(F)c(C#N)c4)nc(=O)n3CC2C1` (stereo not drawn) [Example E289, 2-Fluoro-5-(((9-oxo-2-propionyl-2,3,4,9,11,11a-hexahydro-1H-pyrazino[1′,2′:3,4]imidazo[1,2-c]pyrimidin-7-yl)oxy)methyl)benzonitrile 2,2,2-trifluoroacetate]: the IC50 is not above 100 nM on Lp-PLA2 in human plasma and not above 10000 nM in assay [1].

Consider `CN(C)CC(=O)N1CCN2c3cc(OCc4ccc(F)c(F)c4)nc(=O)n3CC2C1` (stereo not drawn) [Example E346, 7-((3,4-Difluorobenzyl)oxy)-2-(2-(dimethylamino)acetyl)-3,4,11,11a-tetrahydro-1H-pyrazino[1,2′:3,4]imidazo[1,2-c]pyrimidin-9(2H)-one], for which the figures for the IC50 (at Lp-PLA2 in human plasma; in assay [1]) were not above 100 nM and not above 10000 nM, respectively.

Consider `N#Cc1cc(COc2cc3n(c(=O)n2)CC2CNC(=O)CN32)ccc1F` (stereo not drawn) [Example E349, 5-(((3,9-Dioxo-2,3,4,9,11,11a-hexahydro-1H-pyrazino[1′,2′:3,4]imidazo[1,2-c]pyrimidin-7-yl)oxy)methyl)-2-fluorobenzonitrile], for which the values for the IC50 (on Lp-PLA2 in human plasma; in assay [1]) were not above 100 nM and not above 10000 nM, respectively.

Consider `N#Cc1cc(COc2cc3n(c(=O)n2)CC2CSCCN32)ccc1F` (stereo not drawn) [Example E364, 2-Fluoro-5-(((9-oxo-1,3,4,9,11,11a-hexahydropyrimido[6′,1′:2,3]imidazo[5,1-c][1,4]thiazin-7-yl)oxy)methyl)benzonitrile], for which the IC50 (on Lp-PLA2 in human plasma; in assay [1]) was not above 100 nM in each case.

Turning to `O=c1nc(OCc2cc(F)c(Oc3ccnc(C(F)(F)F)c3)c(F)c2)cc2n1CC1CNCCN21` (stereo not drawn) [Example E270, 7-((3,5-Difluoro-4-((2-(trifluoromethyl)pyridin-4-yl)oxy)benzyl)oxy)-3,4,11,11a-tetrahydro-1H-pyrazino[1′,2′:3,4] imidazo [1,2-c]pyrimidin-9(2H)-one], the IC50 was not above 100 nM on Lp-PLA2 in human plasma and not above 10000 nM in assay [1].

As to `N#Cc1cc(COc2cc3n(c(=O)n2)CC2CN(S(=O)(=O)C4CC4)CCN32)ccc1F` (stereo not drawn) [Example E296, 5-(((2-(Cyclopropylsulfonyl)-9-oxo-2,3,4,9,11,11a-hexahydro-1H-pyrazino[1′,2′:3,4]imidazo[1,2-c]pyrimidin-7-yl)oxy)methyl)-2-fluorobenzonitrile 2,2,2-trifluoroacetate], the IC50 on Lp-PLA2 in human plasma was not above 100 nM; in assay [1] it was not above 10000 nM.

With `O=c1nc(OCc2ccc(F)c(F)c2)cc2n1CC1(CCNCC1)N2` [Example 406, 7-((3,4-Difluorobenzyl)oxy)-1H-spiro[imidazo[1,2-c]pyrimidine-2,4′-piperidin]-5(3H)-one], the IC50 on Lp-PLA2 in human plasma was not above 100 nM; in assay [1], not above 10000 nM.

As to `O=c1nc(OCc2cc(F)c(Oc3cncc(C(F)(F)F)c3)c(F)c2)cc2n1CC1C[S+]([O-])CCN21` (stereo not drawn) [Example E372, 7-((3,5-Difluoro-4-((5-(trifluoromethyl)pyridin-3-yl)oxy)benzyl)oxy)-3,4,11,11a-tetrahydropyrimido[6′,1′:2,3]imidazo[5,1-c][1,4]thiazin-9(1H)-one 2-oxide], the IC50 on Lp-PLA2 in human plasma was not above 100 nM; in assay [1], not above 1 nM.
